Experimental findings from patent US8518492B2, “Composition, method for manufacturing thin film, and method for manufacturing light-emitting element” (Semiconductor Energy Laboratory Co., Ltd., priority 2008, dated 2013) are described below.

By solubility is commonly meant the concentration that dissolves in the medium under given conditions.

Where two headings read alike, the source gives them in different places. Where only a bound is given, the exact number is not on record here.

The nature of data set [1]: Solubility test of anthracene derivatives in solvents. As to conditions: for solubility at 10 min: organic solvent or mixture, thermodynamic from solid, ultrasonic waves 10 minutes; for solubility in a solvent (summary in words): solubility test at 10 g/L, six solvents. The class given is physicochemical. The protocol:
As comparative examples, compositions were produced by dissolving samples 1-1 to 1-4 in solvents. As manufacturing examples 1, compositions were produced by dissolving samples 1-5 to 1-14 in solvents. The solubility test was performed on the solvents of the anthracene derivatives of the samples […]. The following six solvents were used: diethyl ether, toluene, ethyl acetate, anisole, acetone, and 1,4-dioxane.
0.01 g of each of the anthracene derivatives of the samples 1-1 to 1-14 was measured and put in a sample bottle, 1 mL of a solvent was added in the sample bottle (the solution concentration was 10 g/L), and ultrasonic waves were applied thereto for 10 minutes.

Data set [2] in a line: Film quality test of spin-coated thin films. Format: physicochemical. The conditions noted are these: for Film Quality Test, Solvent Anisole: 10 g/L in anisole; for Film Quality Test, Solvent Anisole / Film Quality Test, Solvent dioxane / Film Quality Test, Solvent Ethyl acetate / Film Quality Test, Solvent Toluene: spin coated on glass substrate at 1000 rpm (60 seconds); for Film Quality Test, Solvent dioxane: 10 g/L in dioxane; for Film Quality Test, Solvent Ethyl acetate: 10 g/L in ethyl acetate; for Film Quality Test, Solvent Toluene: 10 g/L in toluene. Also noted: key to Film Quality Test, Solvent Toluene / Film Quality Test, Solvent Ethyl acetate / Film Quality Test, Solvent Anisole / Film Quality Test, Solvent dioxane: ◯: a circle is marked in the case of a transparent film where crystallization or white turbidity is not seen; X: a cross is marked in the case of a film where crystallization or white turbidity is seen. The protocol:
A composition of each of the samples was adjusted at a concentration of 10 g/L which is the same as that of the solubility test and was deposited over a glass substrate with a size of 5 inches at 1000 rpm (60 seconds) with a spin coater.

The mark [3] stands for this setting: 0.01 g in 1 mL 1,4-dioxane (10 g/L), read-out: Solubility Test, Solvent dioxane.
[4] abbreviates: 0.01 g in 1 mL acetone (10 g/L), read-out: Solubility Test, Solvent acetone.
Setting [5] is: 0.01 g in 1 mL anisole (10 g/L), read-out: Solubility Test, Solvent Anisole.
The mark [6] stands for this setting: 0.01 g in 1 mL diethyl ether (10 g/L), read-out: Solubility Test, Solvent Diethyl ether.
The mark [7] stands for this setting: 0.01 g in 1 mL ethyl acetate (10 g/L), read-out: Solubility Test, Solvent Ethyl acetate.
[8] abbreviates: 0.01 g in 1 mL toluene (10 g/L), read-out: Solubility Test, Solvent Toluene.

Take `c1ccc(-c2c3ccccc3c(-c3ccccc3)c3ccccc23)cc1` [Sample 1-1, 9,10-diphenylanthracene, reference compound]: the solubility at 10 min was < 10000 µg/mL in data set [1] (setting [3]); < 10000 µg/mL in data set [1] (setting [4]); > 10000 µg/mL in data set [1] (setting [5]); < 10000 µg/mL in data set [1] (setting [6]); < 10000 µg/mL in data set [1] (setting [7]); > 10000 µg/mL in data set [1] (setting [8]). Besides, in data set [1], the “solubility in a solvent (summary in words)” value (from here on “solubility in a solvent”) is reported as “high solubility”. The “Film Quality Test, Solvent Anisole” value in data set [2] is “X”. Moreover, the “Film Quality Test, Solvent dioxane” value in data set [2] is listed as “X”. In addition, the “Film Quality Test, Solvent Ethyl acetate” value in data set [2] is reported as “X”. Besides, in data set [2], the “Film Quality Test, Solvent Toluene” value is on record as “X”. Also, the “film quality (summary in words)” value in data set [2] (film quality test, spin coated from 10 g/L composition) is listed as “crystallized film with a bad quality”.

On to `c1ccc2c(-c3ccc(-n4c5ccccc5c5ccccc54)cc3)c3ccccc3c(-c3ccc(-n4c5ccccc5c5ccccc54)cc3)c2c1` [Sample 1-2, 9,10-bis(4-(N-carbazolyl)phenyl)anthracene, reference compound], for which the solubility at 10 min in data set [1] (setting [3]), in data set [1] (setting [4]), in data set [1] (setting [5]), in data set [1] (setting [6]), in data set [1] (setting [7]) and in data set [1] (setting [8]) was < 10000 µg/mL in each case. Also, the “solubility in a solvent” value in data set [1] is listed as “low solubility”.

As to `c1ccc(-c2c3ccccc3c(-c3ccc(-n4c5ccccc5c5cc(-c6ccc7c(c6)c6ccccc6n7-c6ccccc6)ccc54)cc3)c3ccccc23)cc1` [Sample 1-3, 9-phenyl-9′-[4-(10-phenyl-9-anthryl)phenyl]-3,3′-bi(9H-carbazole), reference compound], the solubility at 10 min in data set [1] (setting [3]), in data set [1] (setting [4]), in data set [1] (setting [5]), in data set [1] (setting [6]), in data set [1] (setting [7]) and in data set [1] (setting [8]) was < 10000 µg/mL each time. Besides, the “solubility in a solvent” value in data set [1] was “low solubility”.

As to `CC(C)(C)c1ccc2c(-c3ccc(-c4ccc5c(c4)c4ccccc4n5-c4ccccc4)cc3)c3ccccc3c(-c3ccc(-c4ccc5c(c4)c4ccccc4n5-c4ccccc4)cc3)c2c1` [Sample 1-4, 3,3′-(2-tert-buthylanthracene-9,10′-diyldi-4,1-phenylene)bis(9-phenyl-9H-carbazole), reference compound], in data set [1], the “solubility in a solvent” value is listed as “low solubility”.

In the case of `c1ccc(-c2c3ccccc3c(-c3ccc(-n4c5ccccc5c5ccccc54)cc3)c3ccccc23)cc1` [Sample 1-5, 9-[4-(N-carbazolyl)]phenyl-10-phenylanthracene], in data set [2], the “Film Quality Test, Solvent Anisole” value is recorded as “◯”; the “Film Quality Test, Solvent dioxane” value was “X”; the “Film Quality Test, Solvent Ethyl acetate” value was “X”; the “Film Quality Test, Solvent Toluene” value is “◯”.

As for `c1ccc(-c2c3ccccc3c(-c3ccc(-c4ccc5c(c4)c4ccccc4n5-c4ccccc4)cc3)c3ccccc23)cc1` [Sample 1-6, 9-phenyl-3-[4-(10-phenyl-9-anthryl)phenyl]-9H-carbazol], the solubility at 10 min was > 10000 µg/mL in data set [1] (setting [3]); < 10000 µg/mL in data set [1] (setting [4]); > 10000 µg/mL in data set [1] (setting [5]); < 10000 µg/mL in data set [1] (setting [6]); < 10000 µg/mL in data set [1] (setting [7]); > 10000 µg/mL in data set [1] (setting [8]). For the same compound, in data set [2], the “Film Quality Test, Solvent Anisole” value is reported as “◯”. Also, the “Film Quality Test, Solvent dioxane” value in data set [2] is “X”. The “Film Quality Test, Solvent Ethyl acetate” value in data set [2] is “X”. Moreover, in data set [2], the “Film Quality Test, Solvent Toluene” value is “◯”.

For the compound `c1ccc(-c2c3ccccc3c(-c3cccc(-n4c5ccccc5c5ccccc54)c3)c3ccccc23)cc1` [Sample 1-7, 9-[3-(10-phenyl-9-anthryl)phenyl]-9H-carbazole], the solubility at 10 min was > 10000 µg/mL in data set [1] (setting [3]); < 10000 µg/mL in data set [1] (setting [4]); > 10000 µg/mL in data set [1] (setting [5]); < 10000 µg/mL in data set [1] (setting [6]); < 10000 µg/mL in data set [1] (setting [7]); > 10000 µg/mL in data set [1] (setting [8]). Further, the “Film Quality Test, Solvent Anisole” value in data set [2] is on record as “◯”. Besides, the “Film Quality Test, Solvent dioxane” value in data set [2] is on record as “◯”. Moreover, the “Film Quality Test, Solvent Ethyl acetate” value in data set [2] is on record as “X”. Further, in data set [2], the “Film Quality Test, Solvent Toluene” value is recorded as “◯”.

Take `CC(C)(C)c1ccc(-c2c3ccccc3c(-c3ccc(-n4c5ccccc5c5ccccc54)cc3)c3ccccc23)cc1` [Sample 1-8, 9-(4-tert-butylphenyl)-10-[4-(carbazol-9-yl)]phenylanthracene]: in data set [2], the “Film Quality Test, Solvent Anisole” value is on record as “◯”; the “Film Quality Test, Solvent dioxane” value is given as “X”; the “Film Quality Test, Solvent Ethyl acetate” value was “X”; the “Film Quality Test, Solvent Toluene” value is given as “◯”.

With `c1ccc2cc(-c3c4ccccc4c(-c4ccc(-n5c6ccccc6c6ccccc65)cc4)c4ccccc34)ccc2c1` [Sample 1-9, 9-[4-(carbazol-9-yl)phenyl]-10-(2-naphthyl)anthracene], the solubility at 10 min in data set [1] (setting [3]) is > 10000 µg/mL; in data set [1] (setting [4]), < 10000 µg/mL; in data set [1] (setting [5]), > 10000 µg/mL; in data set [1] (setting [6]), < 10000 µg/mL; in data set [1] (setting [7]), < 10000 µg/mL; in data set [1] (setting [8]) it was > 10000 µg/mL. Also, the “Film Quality Test, Solvent Anisole” value in data set [2] is listed as “◯”. The “Film Quality Test, Solvent dioxane” value in data set [2] is listed as “X”. Further, the “Film Quality Test, Solvent Ethyl acetate” value in data set [2] is reported as “X”. In data set [2], the “Film Quality Test, Solvent Toluene” value is listed as “◯”.

As for `c1ccc(-c2ccc3c(c2)c2cc(-c4ccccc4)ccc2n3-c2ccc(-c3c4ccccc4c(-c4ccccc4)c4ccccc34)cc2)cc1` [Sample 1-10, 3,6-diphenyl-9-[4-(10-phenyl-9-antryl)phenyl]-9H-carbazole], in data set [2], the “Film Quality Test, Solvent Anisole” value is “◯”; the “Film Quality Test, Solvent dioxane” value is on record as “X”; the “Film Quality Test, Solvent Ethyl acetate” value is “X”; the “Film Quality Test, Solvent Toluene” value was “◯”.

Turning to `c1ccc(-c2c3ccccc3c(-c3ccccc3)c3cc(-c4ccc(-n5c6ccccc6c6ccccc65)cc4)ccc23)cc1` [Sample 1-11, 9-[4-(9,10-diphenyl-2-anthryl)phenyl]-9H-carbazole], the solubility at 10 min in data set [1] (setting [3]) is > 10000 µg/mL; in data set [1] (setting [4]), < 10000 µg/mL; in data set [1] (setting [5]) it was > 10000 µg/mL; in data set [1] (setting [7]), < 10000 µg/mL; in data set [1] (setting [8]), > 10000 µg/mL. Further, the “Film Quality Test, Solvent Anisole” value in data set [2] is “◯”. In data set [2], the “Film Quality Test, Solvent dioxane” value was “X”. Besides, in data set [2], the “Film Quality Test, Solvent Ethyl acetate” value is given as “X”. For the same compound, the “Film Quality Test, Solvent Toluene” value in data set [2] is “◯”.

As for `c1ccc(-c2c3ccccc3c(-c3ccccc3)c3cc(-n4c5ccccc5c5ccccc54)ccc23)cc1` [Sample 1-12, 9-(9,10-diphenyl-2-anthryl)-9H-carbazole], the solubility at 10 min in data set [1] (setting [3]) was > 10000 µg/mL; in data set [1] (setting [4]) it was < 10000 µg/mL; in data set [1] (setting [5]), > 10000 µg/mL; in data set [1] (setting [6]), > 10000 µg/mL; in data set [1] (setting [7]) it was > 10000 µg/mL; in data set [1] (setting [8]), > 10000 µg/mL. Also, the “Film Quality Test, Solvent Anisole” value in data set [2] is “◯”. In data set [2], the “Film Quality Test, Solvent dioxane” value is listed as “X”. Further, the “Film Quality Test, Solvent Ethyl acetate” value in data set [2] is listed as “◯”. Moreover, in data set [2], the “Film Quality Test, Solvent Toluene” value is listed as “◯”.

Take `c1ccc(-c2c3ccccc3c(-c3ccccc3)c3cc(-c4ccc5c(c4)c4ccccc4n5-c4ccccc4)ccc23)cc1` [Sample 1-13, 3-(9,10-diphenyl-2-anthryl)-9-phenyl-9H-carbazole]: the solubility at 10 min in data set [1] (setting [3]), in data set [1] (setting [4]), in data set [1] (setting [5]), in data set [1] (setting [7]) and in data set [1] (setting [8]) was > 10000 µg/mL each time. Besides, the “Film Quality Test, Solvent Anisole” value in data set [2] was “◯”. For the same compound, in data set [2], the “Film Quality Test, Solvent dioxane” value is recorded as “X”. Besides, in data set [2], the “Film Quality Test, Solvent Ethyl acetate” value is reported as “◯”. For the same compound, the “Film Quality Test, Solvent Toluene” value in data set [2] was “◯”.

Regarding `c1ccc(-c2ccccc2-c2c3ccccc3c(-c3ccccc3-c3ccccc3)c3cc(-n4c5ccccc5c5ccccc54)ccc23)cc1` [Sample 1-14, 9-[9,10-bis(2-biphenyl)-2-anthryl]-9H-carbazole], in data set [2], the “Film Quality Test, Solvent Anisole” value is recorded as “◯”; the “Film Quality Test, Solvent dioxane” value is recorded as “X”; the “Film Quality Test, Solvent Ethyl acetate” value is “◯”; the “Film Quality Test, Solvent Toluene” value is on record as “◯”.
